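At the GI50, growth is halved. TGI: concentration producing complete growth inhibition.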
Key:
Test in all cases: inhibition of tumour cell growth, NCI panel, 384-well format
SN12C renal = tested on: SN12C renal
UACC-257 melanoma = tested on: UACC-257 melanoma
KM12 colon = tested on: KM12 colon
RPMI-8226 leukemia = tested on: RPMI-8226 leukemia
SNB-75 CNS = tested on: SNB-75 CNS
MALME-3M melanoma = tested on: MALME-3M melanoma
DU-145 prostate = tested on: DU-145 prostate
786-0 renal = tested on: 786-0 renal
HL-60(TB) leukemia = tested on: HL-60(TB) leukemia
A549 NSCLC = tested on: A549 NSCLC
HOP-92 NSCLC = tested on: HOP-92 NSCLC
ACHN renal = tested on: ACHN renal
SNB-19 CNS = tested on: SNB-19 CNS
SR leukemia = tested on: SR leukemia
BT-549 breast = tested on: BT-549 breast
EKVX NSCLC = tested on: EKVX NSCLC
HCT-15 colon = tested on: HCT-15 colon
SK-MEL-28 melanoma = tested on: SK-MEL-28 melanoma
CAKI-1 renal = tested on: CAKI-1 renal
SK-MEL-2 melanoma = tested on: SK-MEL-2 melanoma
SF-268 CNS = tested on: SF-268 CNS
HS 578T breast = tested on: HS 578T breast
NCI-H460 NSCLC = tested on: NCI-H460 NSCLC
SW-620 colon = tested on: SW-620 colon
OVCAR-4 ovarian = tested on: OVCAR-4 ovarian
COLO 205 colon = tested on: COLO 205 colon
MCF7 breast = tested on: MCF7 breast
PC-3 prostate = tested on: PC-3 prostate
IGROV1 ovarian = tested on: IGROV1 ovarian
TK-10 renal = tested on: TK-10 renal
OVCAR-3 ovarian = tested on: OVCAR-3 ovarian
HCC-2998 colon = tested on: HCC-2998 colon
SK-MEL-5 melanoma = tested on: SK-MEL-5 melanoma
A498 renal = tested on: A498 renal
CCRF-CEM leukemia = tested on: CCRF-CEM leukemia
UACC-62 melanoma = tested on: UACC-62 melanoma
OVCAR-5 ovarian = tested on: OVCAR-5 ovarian
MDA-MB-435 melanoma = tested on: MDA-MB-435 melanoma
SF-539 CNS = tested on: SF-539 CNS
MDA-MB-231 breast = tested on: MDA-MB-231 breast
RXF 393 renal = tested on: RXF 393 renal
MOLT-4 leukemia = tested on: MOLT-4 leukemia
T-47D breast = tested on: T-47D breast
NCI/ADR-RES ovarian = tested on: NCI/ADR-RES ovarian
U251 glioblastoma = tested on: U251 glioblastoma
NCI-H322M lung = tested on: NCI-H322M lung
NCI-H226 lung = tested on: NCI-H226 lung
M14 melanoma = tested on: M14 melanoma
SK-OV-3 ovarian = tested on: SK-OV-3 ovarian
HOP-62 NSCLC = tested on: HOP-62 NSCLC
NCI-H23 lung = tested on: NCI-H23 lung
OVCAR-8 ovarian = tested on: OVCAR-8 ovarian
SF-295 CNS = tested on: SF-295 CNS
NCI-H522 lung = tested on: NCI-H522 lung
HT29 colon = tested on: HT29 colon
MDA-MB-468 breast = tested on: MDA-MB-468 breast

In the case of `O=c1[nH]c(-c2ccc(C(F)(F)F)cc2)nc2c1CSCC2`, the GI50 (SN12C renal) is reported as > 100 µM, the TGI (SN12C renal) is reported as > 100 µM and the GI50 (UACC-257 melanoma) is reported as > 100 µM. The TGI (UACC-257 melanoma) was > 100 µM, the GI50 (KM12 colon) was > 100 µM and the TGI (KM12 colon) was > 100 µM. For the same molecule, the GI50 (RPMI-8226 leukemia) was 78.3 µM, the TGI (RPMI-8226 leukemia) was > 100 µM and the GI50 (SNB-75 CNS) was 24.5 µM. The TGI (SNB-75 CNS) was > 100 µM, the GI50 (MALME-3M melanoma) was 25 µM and the TGI (MALME-3M melanoma) was > 100 µM. The GI50 (DU-145 prostate) was > 100 µM, the TGI (DU-145 prostate) was > 100 µM and the GI50 (786-0 renal) was > 100 µM. The TGI (786-0 renal) was > 100 µM, the GI50 (HL-60(TB) leukemia) was > 100 µM and the TGI (HL-60(TB) leukemia) was > 100 µM. For the same molecule, the GI50 (A549 NSCLC) was > 100 µM, the TGI (A549 NSCLC) was > 100 µM and the GI50 (HOP-92 NSCLC) was > 100 µM. For the same molecule, the TGI (HOP-92 NSCLC) was > 100 µM, the GI50 (ACHN renal) was > 100 µM and the TGI (ACHN renal) was > 100 µM. The GI50 (SNB-19 CNS) was > 100 µM, the TGI (SNB-19 CNS) was > 100 µM and the GI50 (SR leukemia) was > 100 µM. The TGI (SR leukemia) was > 100 µM, the GI50 (BT-549 breast) was 30.5 µM and the TGI (BT-549 breast) was > 100 µM. For the same molecule, the GI50 (EKVX NSCLC) was 24 µM, the TGI (EKVX NSCLC) was > 100 µM and the GI50 (HCT-15 colon) was > 100 µM. For the same molecule, the TGI (HCT-15 colon) was > 100 µM, the GI50 (SK-MEL-28 melanoma) was > 100 µM and the TGI (SK-MEL-28 melanoma) was > 100 µM. For the same molecule, the GI50 (CAKI-1 renal) was 3.83 µM, the TGI (CAKI-1 renal) was > 100 µM and the GI50 (SK-MEL-2 melanoma) was 72.9 µM. The TGI (SK-MEL-2 melanoma) was > 100 µM, the GI50 (SF-268 CNS) was 98.9 µM and the TGI (SF-268 CNS) was > 100 µM. The GI50 (HS 578T breast) was > 100 µM, the TGI (HS 578T breast) was > 100 µM and the GI50 (NCI-H460 NSCLC) was > 100 µM. The TGI (NCI-H460 NSCLC) was > 100 µM, the GI50 (SW-620 colon) was > 100 µM and the TGI (SW-620 colon) was > 100 µM. The GI50 (OVCAR-4 ovarian) was 0.818 µM, the TGI (OVCAR-4 ovarian) was > 100 µM and the GI50 (COLO 205 colon) was > 100 µM. The TGI (COLO 205 colon) was > 100 µM, the GI50 (MCF7 breast) was > 100 µM and the TGI (MCF7 breast) was > 100 µM. For the same molecule, the GI50 (PC-3 prostate) was > 100 µM, the TGI (PC-3 prostate) was > 100 µM and the GI50 (IGROV1 ovarian) was > 100 µM. The TGI (IGROV1 ovarian) was > 100 µM, the GI50 (TK-10 renal) was > 100 µM and the TGI (TK-10 renal) was > 100 µM. For the same molecule, the GI50 (OVCAR-3 ovarian) was 13.5 µM, the TGI (OVCAR-3 ovarian) was > 100 µM and the GI50 (HCC-2998 colon) was > 100 µM. For the same molecule, the TGI (HCC-2998 colon) was > 100 µM, the GI50 (SK-MEL-5 melanoma) was 52.5 µM and the TGI (SK-MEL-5 melanoma) was > 100 µM. The GI50 (A498 renal) was 95.7 µM, the TGI (A498 renal) was > 100 µM and the GI50 (CCRF-CEM leukemia) was 88.6 µM. For the same molecule, the TGI (CCRF-CEM leukemia) was > 100 µM, the GI50 (UACC-62 melanoma) was > 100 µM and the TGI (UACC-62 melanoma) was > 100 µM. The GI50 (OVCAR-5 ovarian) was > 100 µM, the TGI (OVCAR-5 ovarian) was > 100 µM and the GI50 (MDA-MB-435 melanoma) was > 100 µM. For the same molecule, the TGI (MDA-MB-435 melanoma) was > 100 µM, the GI50 (SF-539 CNS) was > 100 µM and the TGI (SF-539 CNS) was > 100 µM. The GI50 (MDA-MB-231 breast) was > 100 µM, the TGI (MDA-MB-231 breast) was > 100 µM and the GI50 (RXF 393 renal) was 13.5 µM. For the same molecule, the TGI (RXF 393 renal) was > 100 µM, the GI50 (MOLT-4 leukemia) was 68.7 µM and the TGI (MOLT-4 leukemia) was > 100 µM. The GI50 (T-47D breast) was > 100 µM, the TGI (T-47D breast) was > 100 µM and the GI50 (NCI/ADR-RES ovarian) was > 100 µM. For the same molecule, the TGI (NCI/ADR-RES ovarian) was > 100 µM, the GI50 (U251 glioblastoma) was > 100 µM and the TGI (U251 glioblastoma) was > 100 µM. For the same molecule, the GI50 (NCI-H322M lung) was > 100 µM, the TGI (NCI-H322M lung) was > 100 µM and the GI50 (NCI-H226 lung) was 13.3 µM. For the same molecule, the TGI (NCI-H226 lung) was > 100 µM, the GI50 (M14 melanoma) was > 100 µM and the TGI (M14 melanoma) was > 100 µM. For the same molecule, the GI50 (SK-OV-3 ovarian) was 14.7 µM, the TGI (SK-OV-3 ovarian) was > 100 µM and the GI50 (HOP-62 NSCLC) was 79.5 µM. The TGI (HOP-62 NSCLC) was > 100 µM, the GI50 (NCI-H23 lung) was 25.7 µM and the TGI (NCI-H23 lung) was > 100 µM. For the same molecule, the GI50 (OVCAR-8 ovarian) was > 100 µM, the TGI (OVCAR-8 ovarian) was > 100 µM and the GI50 (SF-295 CNS) was > 100 µM. The TGI (SF-295 CNS) was > 100 µM, the GI50 (NCI-H522 lung) was 28.8 µM and the TGI (NCI-H522 lung) was > 100 µM. For the same molecule, the GI50 (HT29 colon) was > 100 µM, the TGI (HT29 colon) was > 100 µM and the GI50 (MDA-MB-468 breast) was 7.03 µM. For the same molecule, the TGI (MDA-MB-468 breast) was 53 µM.

Reference: PubChem BioAssay (NCI)
